Assay results: patent US9205135B2, “Podocyte pH modulation and uses thereof” (University of Miami, priority 2009, dated 2015)
“Also recorded” adds a separate entry of the source. Residues, ends and D or L forms follow the SMILES beside them. *: point of attachment. Cbz = O=C(OCc1ccccc1)*; CH2F = FC*

Key:
podocytes [1] = assay: Glutamine uptake rate in cultured podocytes; format: cell-based, mouse; details: injury stimulus
From the text: A podocyte metabolic model was constructed based on available databases as well as mRNA and protein expression data extracted from podocytes. The following podocyte culture models were employed: wildtype (control), LPS and PAN stimulated podocytes (inducible injury models) as well as podocytes with genetic deletion of the alpha3 gene (genetic disease model). All injury cultures increase the uptake of glutamine as well as gluconeogenic aminoacids. In addition, there is increasing ammonia production in diseased podocytes. These changes were predicted by the podocyte metabolic model and confirmed by measuring directly amino acids and ammonia (FIGS. 1A-1D).
Metabolic Flux Analysis emphasizes glutamine utilization pathways for podocyte function: We utilized cultured normal podocytes (control) (15) and three in vitro models for podocyte damage: i) podocytes with α3 integrin deletion (genetic model) (16); ii) podocytes treated with lipopolysaccharides (LPS, immunological model) (17); and iii) podocytes treated with puromycin aminonucleoside (PAN, toxic model) (18). […] Using the podocyte MFA network, we were able to extract podocyte aminoacid and glucose utilization (FIG. 10b-d) that was also independently measured in direct validation studies (data not shown). All analyzed modeling and experimentation data supported the notion that the aminoacid metabolism of podocytes is changed in disease. […]

HEK293 = assay: Glutamine uptake rate in HEK293 cells; format: cell-based
Protocol: (§1) All together, these experiments discovered a uniform metabolic response for podocytes that are injured.
(§2) Cells, antibodies, and standard techniques: Mouse podocyte cell lines (15) and HEK 293 cells (6) were grown as described previously. NIH 3T3 cells were cultured in Dulbecco's modified Eagle's minimal essential medium (Invitrogen, Carlsbad, Calif.) supplemented with 10% fetal calf serum (Invitrogen) and incubated in a humidified atmosphere of 95% air and 5% CO2 at 37° C. Antibody used for immunostaining are Alexa Fluor 594 phalloidin (Molecular Probes, Eugene, Oreg.). Subcellular fractionation was performed as described previously (6).

NIH 3T3 = assay: Glutamine uptake rate in NIH 3T3 cells; format: cell-based
Protocol: as §1, §2

cathepsin L = assay: Cathepsin L activity in cultured podocytes, CV-(FR)2 substrate; format: cell-based, mouse
Protocol: Subcellular sites of cathepsin L and cathepsin B activity in glomerular extracts were visualized by a fluorogenic substrate, CV-(FR)2, which emits light upon cleavage by cathepsin L or cathepsin B (Biomol).
Measurement of cathepsin L activity: Cathepsin L activities in cultured podocytes and in glomeruli was measured using CV-CatL detection kit (Biomol, Plymouth Meeting, Pa.) as described in the manufacturer's instructions. The fluorophore cresyl violet [CV-(FR)2] substrate becomes florescent after Cat L cleavage of the attached Phe-Arg groups. This substrate easily penetrates the cell membrane and the membranes of the internal cellular organelles, enabling the detection of cathepsin activity within living podocytes.

cathepsin B = details: cited from earlier work
C57BL/6 mice = assay: LPS-induced proteinuria model in mice; format: in vivo, mouse; details: for glomerular pH (CMFDA fluorescence of isolated glomeruli): glutamine 0.75 mg/g
Protocol: Treatment of mice with glutamine increases podocyte pH and protects from LPS-induced proteinuria: In order to translate our in vitro findings into a kidney disease relevant model, we next utilized the LPS model in mice known to cause podocyte foot process effacement and proteinuria driven by induction of cytosolic cathepsin L (6). To this end, mice were either injected with only LPS or treated with high dose (0.75 mg/g) glutamine injection 10 min after LPS administration. We analyzed the relative alkalinity of glomeruli using isolated glomeruli that were incubated with green CMFDA. […] We also tested renal function and measured proteinuria in these mice. […] These effects were also visible on an ultrastructural level.
(§3) Immunohistochemistry and immunoelectron microscopy: For immunofluorescent labeling, sections were washed once with PBS and incubated with blocking solution (2% FCS, 2% BSA, 0.2% fish gelatin) for 30 min at room temperature before further incubation with the primary antibody for 1 h at room temperature. Antigen-antibody complexes were visualized with secondary antibodies conjugated with fluorochromes. Specimens were analyzed using a Zeiss confocal microscope (Germany). Ultrathin sections of the kidneys were examined with a Philips CM10 electron microscope (The Netherlands). The number of podocytic FPs was counted in 10 different areas of representative glomeruli. In each area, the number of FPs was calculated within a distance of 1 μm on the GBM (34).
Animals and treatments: All animal studies were performed under protocols approved by the University of Miami animal care and use committee. C57BL/6 mice were obtained from The Jackson Laboratory. The mouse model LPS-induced proteinuria was utilized as previously described (16). Glutamine (Invitrogen) is injected i.p. (0.75 mg/g mouse) 10 min after LPS ([…]) (Sigma Aldrich, St. Louis, Mo.) injection.

podocytes [2] = assay: Intracellular pH of cultured podocytes by CMFDA fluorescence; format: cell-based, mouse; details: glutamine present vs absent in culture medium; normal and α3 integrin deficient podocytes
Protocol: Podocyte pH was assessed with CMFDA—an indicator for pH. Higher green signal is consistent with a more alkaline cell. The presence of high glutamine levels in cell culture media alkalinizes the normal podocytes as well as podocytes that lack integrin α3β1 (genetic model cells for podocyte disease) (FIG. 3A). Both, LPS and PAN treatment stimulate cathepsin L activity in podocytes. Cathepsin L activity is lower in the presence of high glutamine in the cell culture media that in turn leads to a more alkaline podocyte cytosol (FIGS. 3B, 3C).
Modification of intracellular pH by glutamine: One of the key feature in podocyte injury that can be found in all three employed cellular podocyte models is the induction of cytosolic cathepsin L that in turn cleaves critical regulators of the podocyte microfilament system resulting in a reorganization of the podocyte actin cytoskeleton and proteinuria (6). In contrast to lysosomal cathepsin L, cytosolic cathepsin L is operating under non-acidic conditions. […] We used a fluorescent dye CMFDA (5-chloromethylfluorescein diacetate) that captures changes in intracellular pH by alterations in fluorescence (25). The more alkaline the pH, the more green fluorescence is detected (FIGS. 11a-c). […] Using CMFDA, the pH in control cells was determined at 7.1 and at 7.3 in α3 integrin-KO podocytes. […]

wt podocytes = assay: F-actin cytoskeleton staining of cultured podocytes; format: cell-based, mouse; details: wt podocytes after LPS treatment, glutamine in medium vs absent
Protocol: The absence of cathepsin L protected from LPS-mediated loss of F-actin.
as §2, §3

Compound: CN(C)c1ncnc2c1ncn2[C@@H]1O[C@H](CO)[C@@H](N)[C@H]1O [PAN, puromycin aminonucleoside]
- glutamine uptake rate (podocytes [1]): stimulated
- glutamine uptake rate (HEK293): increasing glutamine uptake rate
- glutamine uptake rate (NIH 3T3): increasing glutamine uptake rate
- cathepsin L activity in podocytes (cathepsin L; effect of the injury stimulus itself): stimulate

Compound: O=C(NC(Cc1ccccc1)C(=O)NC(Cc1ccccc1)C(=O)CF)OCc1ccccc1 (stereo not drawn) [Z-FF-FMK, Z-Phe-Phe-FMK] (Cbz-Phe-Phe-CH2F; configuration not given here)
- inhibition of cathepsin B (cathepsin B): does not inhibit

Compound: NC(=O)CC[C@H](N)C(=O)O [glutamine]
- podocyte foot process effacement (electron microscopy) (C57BL/6 mice; LPS-treated mice with glutamine vs LPS only): protects; also recorded: decreased foot process effacement
- glomerular pH (CMFDA fluorescence of isolated glomeruli) (C57BL/6 mice; LPS-treated mice): increase in CMFDA fluorescence; also recorded: glomerular alkalinization; also recorded: increased alkalinity
- proteinuria (urinary protein/creatinine ratio) (C57BL/6 mice; LPS-treated mice, glutamine 0.75 mg/g i.p., 24 h): ameliorates; also recorded: significant lower
- glomerular pH (CMFDA fluorescence of isolated glomeruli) (C57BL/6 mice; LPS-treated mice, listed as Glutamine): increase in CMFDA fluorescence
- podocyte cytosolic pH (CMFDA fluorescence) (podocytes [2]): alkalinizes; also recorded: more alkaline cytosolic pH
- F-actin presence (wt podocytes): improved F-actin presence
- cathepsin L activity in podocytes (cathepsin L; high glutamine in cell culture media, LPS or PAN treated podocytes): lower
